Test results from US6759413B2, “Use of cox-2 inhibitors as gastroprokinetics” (SmithKline Beecham Corporation, priority 2000, dated 2004).

What was measured:
Rats = experiment: Rat model of post operative ileus (methylene blue meal transit); type: in vivo; settings: 3 mg/kg intravenous infusion; four hours post-gavage; eight rats; vehicle 49.3±1.3 cm; p<0.05
Description: Activity In Vivo: Rat Model of Post Operative Ileus
The selective COX-2 inhibitor 2-(4-ethoxy-phenyl)-3-(4-methanesulfonyl-phenyl)-pyrazolo[1,5-b]pyridazine was evaluated in a rat model of post-operative ileus. The methodology represents a modification of the procedure described by McGill et al, Gastroenterology 116: A1040 (1999).
Rats (fourteen) received 0.5 cc of skimmed milk with methylene blue by gavage. Either vehicle (six rats) or 2-(4-ethoxy-phenyl)-3-(4-methanesulfonyl-phenyl)-pyrazolo[1,5-b]pyridazine (eight rats) was then administered by intravenous infusion. Rats were sacrificed four hours post-gavage and the distance the methylene blue meal traversed the intestine measured. The pylorus was set at 0 cm. With vehicle treatment, the meal traversed 49.3±1.3 cm while with 2-(4-ethoxy-phenyl)-3-(4-methanesulfonyl-phenyl)-pyrazolo[1,5-b]pyridazine (3 mg/kg), the meal traversed 67.8±1.1 cm (p<0.05).

[1] = tested on: strips of canine fundic circular muscle; experiment: Smooth muscle in vitro model: fundic circular muscle strips, relaxation/tension change; type: cell-based; settings: 10 μM; n=6-8 strips; FIG. 2
Beagle dogs = experiment: Dog model of gastric emptying (solid phase, gamma camera); type: in vivo; settings: po for three days, measured on fourth day after am dosing; cisapride 0.14 mg/kg TID, celecoxib 2.8 mg/kg BID, 8-acetyl compound 1.2 mg/kg BID; FIG. 3
Description: Activity In Vivo: Dog Model of Gastric Emptying
Beagle dogs were treated for three days with test agents (po administration): placebo BID; cisapride 0.14 mg/kg TID; celecoxib 2.8 mg/kg BID; or 8-acetyl-3-(4-fluoro-phenyl)-2-(4-methanesulfonyl-phenyl)-imidazo[1,2-a]pyridine 1.2 mg/kg BID. Solid phase gastric emptying was measured on the fourth day following am dosing. The same three animals were used for evaluation of each agent, thus reducing any interanimal variations.
Isotope-labeled solid food was fed to the dogs for their morning meal and animals were then placed under a gamma camera and scans performed over the 24 to 36 hours.

dogs = experiment: Dog model of lower esophageal sphincter pressure (LESP); type: in vivo; settings: 3 days treatment, day 4 am dose; cisapride 0.14 mg/kg TID, celecoxib 1.2 mg/kg BID; FIG. 4
Description: Activity In Vivo: Dog Model of Lower Esophageal Sphincter Pressure (LESP) Six adult dogs were instrumented with 14 French esophagostomy tubes. Animals were treated for 3 days with placebo (BID), cisapride (0.14 mg/kg TID) or celecoxib (1.2 mg/kg BID). On day 4 dogs received their am dose of test agent and water perfused manometry catheters were inserted through the esophagostomy tubes. Lower esophageal sphincter pressures (LESPs) were then monitored.

[2] = tested on: strips of canine antrum circular muscles; experiment: Smooth muscle in vitro model of gastric propulsion: antral circular muscle strips, acetylcholine-induced contraction; type: cell-based; settings: 10 μM test agent; ACh 1 μM; n=4-8 strips; organ bath, Krebs solution; FIG. 1
Description: Smooth Muscle in vitro Model of Gastric Propulsion
Agents which stimulate antral smooth muscle activity would be expected to enhance the rate of gastric emptying by propulsion of contents in the aboral direction. By contrast, fundic relaxation could lead to delayed emptying of the stomach as the upper stomach would serve as a reservoir for gastric contents.
The effects of test agents were evaluated on strips of canine antrum circular muscles (n=4-8 strips) suspended in organ baths bathed with Krebs solution. Following establishment of baseline tension, acetylcholine (“ACh”; 1 μM), indomethacin (10 μM), or 8-acetyl-3-(4-fluoro-phenyl)-2-(4-methanesulfonyl-phenyl)-imidazo[1,2-a]pyridine (“8-Acetyl- . . . ”; 10 μM) were applied and tension changes monitored and recorded on a polygraph.

Compound | distance the methylene blue meal traversed the intestine (pylorus = 0 cm) (Rats) [cm] | relaxation / change in tension of fundic circular muscle [1] | rate of solid phase gastric emptying (Beagle dogs) | lower esophageal sphincter pressure (LESP) compared to placebo (dogs) | sensitisation of antral circular muscle to acetylcholine-induced contractions [2]
CCOc1ccc(-c2nn3ncccc3c2-c2ccc(S(C)(=O)=O)cc2)cc1 [2-(4-ethoxy-phenyl)-3-(4-methanesulfonyl-phenyl)-pyrazolo[1,5-b]pyridazine] | 67.8±1.1 | – | – | – | –
CC(=O)c1cccn2c(-c3ccc(F)cc3)c(-c3ccc(S(C)(=O)=O)cc3)nc12 [8-acetyl-3-(4-fluoro-phenyl)-2-(4-methanesulfonyl-phenyl)-imidazo[1,2-a]pyridine] | – | only small changes in tension | increased the rate of gastric emptying | – | –
COc1cc(N)c(Cl)cc1C(=O)NC1CCN(CCCOc2ccc(F)cc2)CC1OC (stereo not shown) [cisapride] | – | – | increased the rate of gastric emptying | increased LESP | –
COc1ccc2c(c1)c(CC(=O)O)c(C)n2C(=O)c1ccc(Cl)cc1 [indomethacin] | – | near complete relaxation | – | – | enhanced acetylcholine-induced contractions
